Assay results taken from US20050064011A1, “Implantable or insertable medical devices containing phenolic compound for inhibition of restenosis” (priority 2003, published 2005).

System: coronary arteries of juvenile domestic swine
Assay: Stent implantation in porcine coronary artery model, morphometric analysis after 28 days
Type: in vivo
Settings: BHT in copolymer stent coating
From the text: The following are placed in the coronary arteries of juvenile domestic swine: (a) oversized bare metal stents, (b) EtO-sterilized, copolymer-coated, BHT-free stents, (c) electron-beam-sterilized, copolymer-coated, BHT-free stents, (d) electron-beam-sterilized, stents with coating containing 5% BHT and 95% copolymer, and (e) electron beam-sterilized, stents with coating containing 10% BHT and 90% copolymer. After 28 days, the stents are harvested from the animals and an examination of morphometric % restenosis and neointimal thickening area was conducted. Morphometric analysis is performed on one specimen from each stented segment in a blinded manner. Morphometry is completed using a PC based digital planimetry system. Morphometric % restenosis is determined by neointimal area÷internal elastic lamina (IEL) area×100; while neointimal area is determined by internal elastic lamina (IEL)−injured luminal area. The results are presented in the table to follow: Statistical methods are as follows: Data are presented as mean±S.D. Comparisons between the control (bare stent) and treated stents were made using unpaired t-test. Improvement in morphometic % restenosis and neointimal area, relative to bare stents, was […] considered to be statistically significant for values of p≦0.05.

Q: With `Cc1cc(C(C)(C)C)c(O)c(C(C)(C)C)c1` [BHT, butylated hydroxytoluene] as the compound, how does the stent biocompatibility read?
A: The stent biocompatibility was “enhances stent biocompatibility”.
